Numbering of substitutions follows the chain as printed.
How the values were obtained:
[1] = target: T1, Unmet expectations (Unmet; CG11596) (Drosophila melanogaster, UniProt Q9I7X6); test: competition with [3H]SAM binding to purified protein on anti-FLAG beads; settings: 5 μM [3H]SAM, pH 7.4, on ice
T1 construct: FLAG-tagged, tag kept; pRK5 vector, expressed in suspension HEK-293T cells
T1 sequence (Q9I7X6 1-456): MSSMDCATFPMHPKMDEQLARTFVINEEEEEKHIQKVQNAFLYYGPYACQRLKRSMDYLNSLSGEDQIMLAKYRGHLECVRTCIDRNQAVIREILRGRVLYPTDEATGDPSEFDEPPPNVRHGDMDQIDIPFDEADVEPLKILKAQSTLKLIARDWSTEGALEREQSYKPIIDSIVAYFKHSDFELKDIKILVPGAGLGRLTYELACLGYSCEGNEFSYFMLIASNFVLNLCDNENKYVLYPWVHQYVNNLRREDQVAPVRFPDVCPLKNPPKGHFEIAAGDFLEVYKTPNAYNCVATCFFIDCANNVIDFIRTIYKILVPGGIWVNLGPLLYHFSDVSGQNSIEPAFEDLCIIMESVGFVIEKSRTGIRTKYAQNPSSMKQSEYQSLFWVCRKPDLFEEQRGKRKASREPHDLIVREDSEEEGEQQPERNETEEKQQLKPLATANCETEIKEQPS

[2] = target: T2, Unmet expectations (Unmet; CG11596) (Drosophila melanogaster, UniProt Q9I7X6, E30A); test: [3H]SAM binding to purified protein on anti-FLAG beads; settings: 5 μM [3H]SAM with or without unlabeled SAM, pH 7.4, on ice; labelled compound
T2 construct: FLAG-tagged, tag kept; pRK5 vector, expressed in suspension HEK-293T cells
T2 sequence (Q9I7X6 1-456 E30A): T1 sequence (Q9I7X6 1-456) with E30A

| SMILES | competition with [3H]SAM binding to purified protein on anti-FLAG beads [1] | SAM-binding capacity [2] |
| --- | --- | --- |
| Nc1ncnc2c1ncn2[C@@H]1O[C@H](CSCC[C@H](N)C(=O)O)[C@@H](O)[C@H]1O [SAH] | it readily competes with labeled SAM for binding to Unmet | – |
| C[S+](CC[C@H](N)C(=O)O)C[C@H]1O[C@@H](n2cnc3c(N)ncnc32)[C@H](O)[C@@H]1O (stereo partly drawn) [SAM] | – | The E30A mutant of Unmet does not interact with dGATOR2 but maintains its SAM-binding capacity |
| Nc1ncnc2c1ncn2[C@@H]1O[C@H](C[C@@H](N)CC[C@H](N)C(=O)O)[C@@H](O)[C@H]1O [sinefungin] | also competes with labeled SAM for binding to Unmet | – |
